This passage reports IC50 results from US20230295182A1, “SPIRO DERIVATIVES OF ALPHA-D-GALACTOPYRANOSIDES” (Idorsia Pharmaceuticals Ltd, priority 2020, published 2023).

For one assay, the target named is human Gal-3 (hGal-3) (Homo sapiens (Human), UniProt P17931). The assay is described as follows: Competitive binding assay: biotinylated hGal-3 to microplate-adsorbed asialofetuin (ASF). The conditions noted are these: Activity on hGal-3; binding to ASF-coated plates, 3 hours at 4° C.; mean values. In short, it runs like this: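 Biotinylated hGal-3 (300-1000 ng/mL) binding to plate-adsorbed asialofetuin, with DMSO-diluted compound added, incubated 3 h at 4 °C. After washing, bound protein detected with streptavidin-peroxidase (80 ng/mL, 1 h, 4 °C) and ABTS substrate, read spectrophotometrically. IC50 given as mean of several measurements.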

The target of a further assay is human Gal-1 (hGal-1) (Homo sapiens, UniProt P09382). As to the kind of experiment: Competitive binding assay: biotinylated hGal-1 to microplate-adsorbed asialofetuin (ASF). The following applies: Activities on hGal-1; binding to ASF-coated plates, 3 hours at 4° C.; mean values; read-out: Gal-1 IC50. In short, it runs like this:
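Plate-adsorbed asialofetuin is incubated 3 h at 4 °C with biotinylated hGal-1, optionally its all-serine-substituted cysteine variant, plus compound dilutions. ABTS color after 1 h streptavidin-peroxidase (80 ng/mL) at 4 °C reports binding. Reported IC50 is a mean across repeat runs.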

human Gal-1 (hGal-1), sequence (P09382 2-135 limits assumed): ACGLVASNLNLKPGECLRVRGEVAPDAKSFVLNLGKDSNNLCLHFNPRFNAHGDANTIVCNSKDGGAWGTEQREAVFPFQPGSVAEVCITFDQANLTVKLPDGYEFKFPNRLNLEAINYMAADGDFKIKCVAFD
human Gal-3 (hGal-3), sequence (P17931 whole entry): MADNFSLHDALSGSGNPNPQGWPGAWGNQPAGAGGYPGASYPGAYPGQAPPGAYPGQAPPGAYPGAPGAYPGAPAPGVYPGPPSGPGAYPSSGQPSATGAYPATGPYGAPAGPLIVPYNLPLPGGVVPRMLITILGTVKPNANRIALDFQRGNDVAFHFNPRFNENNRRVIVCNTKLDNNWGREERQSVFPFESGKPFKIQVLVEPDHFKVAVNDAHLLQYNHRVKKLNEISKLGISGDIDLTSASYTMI

Regarding `CO[C@@H]1[C@@H](n2cc(-c3cc(F)c(F)c(F)c3)nn2)[C@@H](O)[C@@H](CO)O[C@@H]1CC1=NOC2(CCC(=NO)CC2)C1` (stereo partly drawn) [Example 2.18, 3-(((2R,3R,4S,5R,6R)-5-hydroxy-6-(hydroxymethyl)-3-methoxy-4-(4-(3,4,5-trifluorophenyl)-1H-1,2,3-triazol-1-yl)tetrahydro-2H-pyran-2-yl)methyl)-1-oxa-2-azaspiro[4.5]dec-2-en-8-one oxime], the figures for the IC50 at human Gal-3 (hGal-3) and on human Gal-1 (hGal-1) were 320 nM and 2900 nM, respectively.

On to `CO[C@@H]1[C@@H](n2cc(-c3cc(F)c(F)c(F)c3)nn2)[C@@H](O)[C@@H](CO)O[C@@H]1CC1=NOC2(CCC(N3CCOCC3)CC2)C1` (stereo partly drawn) [Example 2.19, (2R,3R,4S,5R,6R)-2-(hydroxymethyl)-5-methoxy-6-((8-morpholino-1-oxa-2-azaspiro[4.5]dec-2-en-3-yl)methyl)-4-(4-(3,4,5-trifluorophenyl)-1H-1,2,3-triazol-1-yl)tetrahydro-2H-pyran-3-ol], for which the figures for the IC50 at human Gal-3 (hGal-3) and on human Gal-1 (hGal-1) were 390 nM and 1700 nM, respectively.

As for `CO[C@@H]1[C@@H](n2cc(-c3cc(F)c(F)c(F)c3)nn2)[C@@H](O)[C@@H](CO)O[C@@H]1CC1=NO[C@]2(CC[C@H](NCC(F)F)CC2)C1` [Example 2.20, (2R,3R,4S,5R,6R)-6-(((5r,8R)-8-((2,2-difluoroethyl)amino)-1-oxa-2-azaspiro[4.5]dec-2-en-3-yl)methyl)-2-(hydroxymethyl)-5-methoxy-4-(4-(3,4,5-trifluorophenyl)-1H-1,2,3-triazol-1-yl)tetrahydro-2H-pyran-3-ol], the half-inhibitory concentration (IC50) at human Gal-3 (hGal-3) stood at 110 nM; on human Gal-1 (hGal-1), 1800 nM.

Consider `CO[C@@H]1[C@@H](n2cc(-c3cc(F)c(F)c(F)c3)nn2)[C@@H](O)[C@@H](CO)O[C@@H]1CC1=NO[C@]2(CC[C@@H](NCC(F)F)CC2)C1` [Example 2.21, (2R,3R,4S,5R,6R)-6-(((5s,8S)-8-((2,2-difluoroethyl)amino)-1-oxa-2-azaspiro[4.5]dec-2-en-3-yl)methyl)-2-(hydroxymethyl)-5-methoxy-4-(4-(3,4,5-trifluorophenyl)-1H-1,2,3-triazol-1-yl)tetrahydro-2H-pyran-3-ol], for which the IC50 on human Gal-3 (hGal-3) worked out at 380 nM; at human Gal-1 (hGal-1) it was 1600 nM.

As for `CO[C@@H]1[C@@H](n2cc(-c3cc(F)c(F)c(F)c3)nn2)[C@@H](O)[C@@H](CO)O[C@@H]1CC1=NO[C@]2(CC[C@H](NC3CC3)CC2)C1` [Example 2.22, (2R,3R,4S,5R,6R)-6-(((5r,8R)-8-(cyclopropylamino)-1-oxa-2-azaspiro[4.5]dec-2-en-3-yl)methyl)-2-(hydroxymethyl)-5-methoxy-4-(4-(3,4,5-trifluorophenyl)-1H-1,2,3-triazol-1-yl)tetrahydro-2H-pyran-3-ol], the half-maximal inhibitory concentration (IC50) at human Gal-3 (hGal-3) stood at 140 nM; on human Gal-1 (hGal-1), 1300 nM.

As for `CO[C@@H]1[C@@H](n2cc(-c3cc(F)c(F)c(F)c3)nn2)[C@@H](O)[C@@H](CO)O[C@@H]1CC1=NO[C@]2(CC[C@@H](NC3CC3)CC2)C1` [Example 2.23, (2R,3R,4S,5R,6R)-6-(((5s,8S)-8-(cyclopropylamino)-1-oxa-2-azaspiro[4.5]dec-2-en-3-yl)methyl)-2-(hydroxymethyl)-5-methoxy-4-(4-(3,4,5-trifluorophenyl)-1H-1,2,3-triazol-1-yl)tetrahydro-2H-pyran-3-ol], the IC50 came to 590 nM at human Gal-3 (hGal-3) and 1600 nM on human Gal-1 (hGal-1).

On to `Cc1ccc(-c2cn([C@H]3[C@@H](O)[C@@H](CO)O[C@H](CC4=NOC5(CCOCC5)C4)[C@@H]3OCC(=O)O)nn2)c(F)c1F` [Example 2.24, 2-(((2R,3R,4S,5R,6R)-2-((1,8-dioxa-2-azaspiro[4.5]dec-2-en-3-yl)methyl)-4-(4-(2,3-difluoro-4-methylphenyl)-1H-1,2,3-triazol-1-yl)-5-hydroxy-6-(hydroxymethyl)tetrahydro-2H-pyran-3-yl)oxy)acetic acid], for which the IC50 at human Gal-3 (hGal-3) came out at 80 nM; on human Gal-1 (hGal-1), 6700 nM.

Turning to `Cc1ccc(-c2cn([C@H]3[C@@H](O)[C@@H](CO)O[C@H](CC4=NOC5(CCCCC5)C4)[C@@H]3OCC(=O)O)nn2)c(F)c1F` [Example 2.25, 2-(((2R,3R,4S,5R,6R)-2-((1-oxa-2-azaspiro[4.5]dec-2-en-3-yl)methyl)-4-(4-(2,3-difluoro-4-methylphenyl)-1H-1,2,3-triazol-1-yl)-5-hydroxy-6-(hydroxymethyl)tetrahydro-2H-pyran-3-yl)oxy)acetic acid], the results for the IC50 on human Gal-3 (hGal-3) and at human Gal-1 (hGal-1) were 37 nM and 3700 nM, respectively.

For the compound `O=C(O)CO[C@@H]1[C@@H](n2cc(-c3cc(F)c(F)c(F)c3)nn2)[C@@H](O)[C@@H](CO)O[C@@H]1CC1=NOC2(CCCCC2)C1` [Example 2.26, 2-(((2R,3R,4S,5R,6R)-2-((1-oxa-2-azaspiro[4.5]dec-2-en-3-yl)methyl)-5-hydroxy-6-(hydroxymethyl)-4-(4-(3,4,5-trifluorophenyl)-1H-1,2,3-triazol-1-yl)tetrahydro-2H-pyran-3-yl)oxy)acetic acid], the results for the concentration for half-maximal inhibition (IC50) at human Gal-3 (hGal-3) and at human Gal-1 (hGal-1) were 90 nM and 3500 nM, respectively.

`CO[C@@H]1[C@@H](n2cc(-c3cc(F)c(F)c(F)c3)nn2)[C@@H](O)[C@@H](CO)O[C@@H]1CC1=NOC2(CCN(C(=O)NC(C)(C)C)CC2)C1` [Example 2.28, N-(tert-butyl)-3-(((2R,3R,4S,5R,6R)-5-hydroxy-6-(hydroxymethyl)-3-methoxy-4-(4-(3,4,5-trifluorophenyl)-1H-1,2,3-triazol-1-yl)tetrahydro-2H-pyran-2-yl)methyl)-1-oxa-2,8-diazaspiro[4.5]dec-2-ene-8-carboxamide]: the half-maximal inhibitory concentration (IC50) at human Gal-3 (hGal-3) came out at 140 nM; at human Gal-1 (hGal-1) it was 1700 nM.

`CO[C@@H]1[C@@H](n2cc(-c3cc(F)c(F)c(F)c3)nn2)[C@@H](O)[C@@H](CO)O[C@@H]1CC1=NOC2(CCN(C)CC2)C1` [Example 2.29, (2R,3R,4S,5R,6R)-2-(hydroxymethyl)-5-methoxy-6-((8-methyl-1-oxa-2,8-diazaspiro[4.5]dec-2-en-3-yl)methyl)-4-(4-(3,4,5-trifluorophenyl)-1H-1,2,3-triazol-1-yl)tetrahydro-2H-pyran-3-ol]: the IC50 at human Gal-3 (hGal-3) was 380 nM; on human Gal-1 (hGal-1), 4800 nM.

For the compound `CO[C@@H]1[C@@H](n2cc(-c3cc(F)c(F)c(F)c3)nn2)[C@@H](O)[C@@H](CO)O[C@@H]1CC1=NOC2(CCN(C(C)=O)CC2)C1` [Example 2.30, 1-(3-(((2R,3R,4S,5R,6R)-5-hydroxy-6-(hydroxymethyl)-3-methoxy-4-(4-(3,4,5-trifluorophenyl)-1H-1,2,3-triazol-1-yl)tetrahydro-2H-pyran-2-yl)methyl)-1-oxa-2,8-diazaspiro[4.5]dec-2-en-8-yl)ethan-1-one], the IC50 at human Gal-3 (hGal-3) amounted to 280 nM; on human Gal-1 (hGal-1), 2800 nM.

With `CO[C@@H]1[C@@H](n2cc(-c3cc(F)c(F)c(F)c3)nn2)[C@@H](O)[C@@H](CO)O[C@@H]1CC1=NOC2(CCN(S(C)(=O)=O)CC2)C1` [Example 2.31, (2R,3R,4S,5R,6R)-2-(hydroxymethyl)-5-methoxy-6-((8-(methylsulfonyl)-1-oxa-2,8-diazaspiro[4.5]dec-2-en-3-yl)methyl)-4-(4-(3,4,5-trifluorophenyl)-1H-1,2,3-triazol-1-yl)tetrahydro-2H-pyran-3-ol], the IC50 on human Gal-3 (hGal-3) stood at 530 nM; on human Gal-1 (hGal-1), 3500 nM.

Regarding `CO[C@@H]1[C@@H](n2cc(-c3cc(F)c(F)c(F)c3)nn2)[C@@H](O)[C@@H](CO)O[C@@H]1CN1CC2(CCN(C(=O)OC(C)(C)C)CC2)OC1=O` [Example 3.01, tert-butyl 3-(((2R,3R,4S,5R,6R)-5-hydroxy-6-(hydroxymethyl)-3-methoxy-4-(4-(3,4,5-trifluorophenyl)-1H-1,2,3-triazol-1-yl)tetrahydro-2H-pyran-2-yl)methyl)-2-oxo-1-oxa-3,8-diazaspiro[4.5]decane-8-carboxylate], the half-maximal inhibitory concentration (IC50) at human Gal-3 (hGal-3) is 120 nM; on human Gal-1 (hGal-1), 2700 nM.

For the compound `CO[C@@H]1[C@@H](n2cc(-c3ccc(C)c(F)c3F)nn2)[C@@H](O)[C@@H](CO)O[C@@H]1CN1CC2(CCCCC2)OC1=O` [Example 3.02, 3-(((2R,3R,4S,5R,6R)-4-(4-(2,3-difluoro-4-methylphenyl)-1H-1,2,3-triazol-1-yl)-5-hydroxy-6-(hydroxymethyl)-3-methoxytetrahydro-2H-pyran-2-yl)methyl)-1-oxa-3-azaspiro[4.5]decan-2-one], the IC50 at human Gal-3 (hGal-3) was found to be 36 nM; at human Gal-1 (hGal-1) it was 1400 nM.

Take `CO[C@@H]1[C@@H](n2cc(-c3ccc(C)c(F)c3F)nn2)[C@@H](O)[C@@H](CO)O[C@@H]1CN1CC2(CCOCC2)OC1=O` [Example 3.03, 3-(((2R,3R,4S,5R,6R)-4-(4-(2,3-difluoro-4-methylphenyl)-1H-1,2,3-triazol-1-yl)-5-hydroxy-6-(hydroxymethyl)-3-methoxytetrahydro-2H-pyran-2-yl)methyl)-1,8-dioxa-3-azaspiro[4.5]decan-2-one]: the IC50 at human Gal-3 (hGal-3) is 90 nM; at human Gal-1 (hGal-1), 2300 nM.

`CO[C@@H]1[C@@H](n2cc(-c3ccc(Cl)c(F)c3F)nn2)[C@@H](O)[C@@H](CO)O[C@@H]1CN1CC2(CCCCC2)CNC1=O` [Example 4.02, 2-(((2R,3R,4S,5R,6R)-4-(4-(4-chloro-2,3-difluorophenyl)-1H-1,2,3-triazol-1-yl)-5-hydroxy-6-(hydroxymethyl)-3-methoxytetrahydro-2H-pyran-2-yl)methyl)-2,4-diazaspiro[5.5]undecan-3-one]: the IC50 on human Gal-3 (hGal-3) amounted to 74 nM; at human Gal-1 (hGal-1), 400 nM.

Regarding `CO[C@@H]1[C@@H](n2cc(-c3ccc(C)c(F)c3F)nn2)[C@@H](O)[C@@H](CO)O[C@@H]1CN1CC2(CCCCC2)N=C1C` [Example 4.03, (2R,3R,4S,5R,6R)-4-(4-(2,3-difluoro-4-methylphenyl)-1H-1,2,3-triazol-1-yl)-2-(hydroxymethyl)-5-methoxy-6-((2-methyl-1,3-diazaspiro[4.5]dec-1-en-3-yl)methyl)tetrahydro-2H-pyran-3-ol], the IC50 at human Gal-3 (hGal-3) worked out at 74 nM; at human Gal-1 (hGal-1), 1700 nM.
